Test results as given in US6693085B2, “Macrolide compound JK” (Higeta Shoyu Co., Ltd., priority 2000, dated 2004).
≈ marks a conversion by molar mass, not a printed value. Read-outs that look alike come from different tables or passages of the source. Each block holds one compound with its values, some of them ahead of it.

Tests used:
[1] = tested on: Actinomadura pelletieri IFM0903; assay: Sensitivity of the producing strain against antibiotics; assay type: cell-based; settings: Actinomadura pelletieri IFM0903, strain characterisation
gram-positive bacteria = assay: Antimicrobial activity (MIC), summary for gram-positive bacteria; assay type: cell-based; settings: range over the gram-positive bacteria of Table 5
Description: (§1) Antimicrobial activity of JK-1 was determined by measuring the minimum growth inhibition concentration (MIC) as follows.
(§2) MIC values of JK against a variety of microorganisms were determined on a Mueller-Hinton broth containing 0.2% glucose according to the rule of Japanese Society of Chemotherapy (Kouseibussitsu Taiyo (The Essentials of Antibiotics), 4th ed., University of Tokyo Press, 1992).
(§3) JK-1 was dissolved in methanol, and diluted with the above medium, repeating 2-fold dilution starting from 1 mg/ml. Test microorganisms were added to the above medium to give a test solution of 1×10^6 cells/ml. The JK solution (20 μl) and the test solution (180 μl) were dispensed in a 96 well microplate and incubated at 37° C. After 24 hours, either positive or negative growth was confirmed visually, and the MIC value was caluculated.

MRSA = assay: Antimicrobial activity (MIC, broth dilution); assay type: cell-based, Staphylococcus aureus; settings: 24 hours, 37° C.
Description: as §1, §2, §3

[2] = tested on: clinically freshly isolated MRSAs; assay: Anti-MRSA activity (MIC), 11 clinically freshly isolated MRSA strains; assay type: cell-based, Staphylococcus aureus; settings: for MIC: Staphylococcus aureus, MRSA
Description: as §1, §2, §3
Among gram-positive bacteria, there was no difference between MIC values, especially, of Staphylococcus aureus and its multi-drug resistant strain MRSA (Table 5) which have become a clinical problem. In this situation, the antimicrobial activity of JK-1 was compared to that of commercially available 3 drugs in 11 strains of clinically freshly isolated MRSAs.

Asperigillus niger = assay: Antimicrobial activity (MIC, broth dilution); assay type: cell-based; settings: 24 hours, 37° C.
Description: as §1, §2, §3

Bacillus subtilis PCII89 = assay: Antimicrobial activity (MIC, broth dilution); assay type: cell-based; settings: Bacillus subtilis PCII89, 24 hours, 37° C.
Description: as §1, §2, §3

Micrococcus luteus = assay: Antimicrobial activity (MIC, broth dilution); assay type: cell-based; settings: 24 hours, 37° C.
Description: as §1, §2, §3

Gordonia bronchialis = assay: Antimicrobial activity (MIC, broth dilution); assay type: cell-based; settings: 24 hours, 37° C.
Description: as §1, §2, §3

[3] = tested on: Staphylococcus aureus 209P; assay: Antimicrobial activity (MIC, broth dilution); assay type: cell-based; settings: 24 hours, 37° C.
Description: as §1, §2, §3

Candida albicans = assay: Antimicrobial activity (MIC, broth dilution); assay type: cell-based; settings: 24 hours, 37° C.
Description: as §1, §2, §3

[4] = tested on: Escherichia coli NIH JC-2; assay: Antimicrobial activity (MIC, broth dilution); assay type: cell-based; settings: Escherichia coli NIH JC-2, 24 hours, 37° C.
Description: as §1, §2, §3

Nocardia asteroides = assay: Antimicrobial activity (MIC, broth dilution); assay type: cell-based; settings: 24 hours, 37° C.
Description: as §1, §2, §3

Corynebacterium xerosis = assay: Antimicrobial activity (MIC, broth dilution); assay type: cell-based; settings: 24 hours, 37° C.
Description: as §1, §2, §3

[5] = tested on: gram-negative bacteria and fungi; assay: Antimicrobial activity (MIC), summary for gram-negative bacteria and fungi; assay type: cell-based; settings: summary of Table 5
Description: as §1, §2, §3

Structure (SMILES): O=c1[nH]cc(F)c(=O)[nH]1 [Compound 5-FU, 5-FU]
Sensitivity against Antibiotics [1]: positive

Structure (SMILES): CCCC1C=CC2C=C(C)C(OC3CC(NC)C(NC(=O)c4c(O)ccc(Cl)c4C)C(C)O3)CC=CC3C(CC)=CC4C(O)C(O)CC(C)C4C3(C)C(=O)C3=C(O)C2(C1)OC3=O (stereo not shown) [JK-1]
MIC values against gram-positive bacteria (gram-positive bacteria): 0.025 to 0.39 µg/mL | MIC values (MRSA): 0.05 µg/mL (≈ 0.057 µM) | activity relative to vancomycin ([2]; 11 strains of clinically freshly isolated MRSAs): about 6 times | MIC values ([2]; MRSA strain 3666): 0.2 µg/mL (≈ 0.228 µM) | MIC values ([2]; MRSA strain 3667): 0.2 µg/mL (≈ 0.228 µM) | MIC values ([2]; MRSA strain 3668): 0.2 µg/mL (≈ 0.228 µM) | MIC values ([2]; MRSA strain 3669): 0.2 µg/mL (≈ 0.228 µM) | MIC values ([2]; MRSA strain 3670): 1.56 µg/mL (≈ 1.78 µM) | MIC values ([2]; MRSA strain 3671): 0.1 µg/mL (≈ 0.114 µM) | MIC values ([2]; MRSA strain S-1): 0.78 µg/mL (≈ 0.889 µM) | MIC values ([2]; MRSA strain S-2): 0.39 µg/mL (≈ 0.444 µM) | MIC values ([2]; MRSA strain S-3): 0.39 µg/mL (≈ 0.444 µM) | MIC values ([2]; MRSA strain S-4): 0.2 µg/mL (≈ 0.228 µM) | MIC values ([2]; MRSA strain S-5): 0.2 µg/mL (≈ 0.228 µM) | MIC values (Asperigillus niger): >100 µg/mL | MIC values (Bacillus subtilis PCII89): 0.39 µg/mL (≈ 0.444 µM) | MIC values (Micrococcus luteus): 0.05 µg/mL (≈ 0.057 µM) | MIC values (Gordonia bronchialis): 0.39 µg/mL (≈ 0.444 µM) | MIC values [3]: 0.05 µg/mL (≈ 0.057 µM) | MIC values (Candida albicans): >100 µg/mL | MIC values [4]: >100 µg/mL | MIC values (Nocardia asteroides): 0.05 µg/mL (≈ 0.057 µM) | MIC values (Corynebacterium xerosis): 0.025 µg/mL (≈ 0.0285 µM) | antimicrobial activity against gram-negative bacteria and fungi [5]: No antimicrobial activity

MIC values ([2]; MRSA strain 3666): 0.2 µg/mL (≈ 0.232 µM) | MIC values ([2]; MRSA strain 3667): 0.2 µg/mL (≈ 0.232 µM) | MIC values ([2]; MRSA strain 3668): 0.2 µg/mL (≈ 0.232 µM) | MIC values ([2]; MRSA strain 3669): 0.2 µg/mL (≈ 0.232 µM) | MIC values ([2]; MRSA strain 3670): 0.78 µg/mL (≈ 0.903 µM) | MIC values ([2]; MRSA strain 3671): 0.2 µg/mL (≈ 0.232 µM) | MIC values ([2]; MRSA strain S-1): 0.78 µg/mL (≈ 0.903 µM) | MIC values ([2]; MRSA strain S-2): 0.78 µg/mL (≈ 0.903 µM) | MIC values ([2]; MRSA strain S-3): 0.39 µg/mL (≈ 0.452 µM) | MIC values ([2]; MRSA strain S-4): 0.39 µg/mL (≈ 0.452 µM) | MIC values ([2]; MRSA strain S-5): 0.2 µg/mL (≈ 0.232 µM)
Structure (SMILES): CCCC1C=CC2C=C(C)C(OC3CC(N)C(NC(=O)c4c(O)ccc(Cl)c4C)C(C)O3)CC=CC3C(CC)=CC4C(O)C(O)CC(C)C4C3(C)C(=O)C3=C(O)C2(C1)OC3=O (stereo not shown) [JK-2]

Structure (SMILES): NC[C@H]1O[C@H](O[C@H]2[C@H](O)[C@@H](O[C@H]3O[C@H](CO)[C@@H](O)[C@H](N)[C@H]3O)[C@H](N)C[C@@H]2N)[C@H](N)C[C@@H]1O [Tobramycin]
Sensitivity against Antibiotics [1]: positive

MIC ([2]; MRSA strain 3666, read-out: MIC values): > 100 µg/mL | MIC ([2]; MRSA strain 3667, read-out: MIC values): > 100 µg/mL | MIC ([2]; MRSA strain 3668, read-out: MIC values): > 100 µg/mL | MIC ([2]; MRSA strain 3669, read-out: MIC values): > 100 µg/mL | MIC ([2]; MRSA strain 3670, read-out: MIC values): > 100 µg/mL | MIC ([2]; MRSA strain 3671, read-out: MIC values): > 100 µg/mL | MIC ([2]; MRSA strain S-1, read-out: MIC values): > 100 µg/mL | MIC ([2]; MRSA strain S-2, read-out: MIC values): 12.5 µg/mL (≈ 17 µM) | MIC ([2]; MRSA strain S-3, read-out: MIC values): > 100 µg/mL | MIC ([2]; MRSA strain S-4, read-out: MIC values): > 100 µg/mL | MIC ([2]; MRSA strain S-5, read-out: MIC values): > 100 µg/mL
Structure (SMILES): CC[C@H]1OC(=O)[C@H](C)[C@@H](O[C@H]2C[C@@](C)(OC)[C@@H](O)[C@H](C)O2)[C@H](C)[C@@H](O[C@@H]2O[C@H](C)C[C@H](N(C)C)[C@H]2O)[C@](C)(O)C[C@@H](C)C(=O)[C@H](C)[C@@H](O)[C@]1(C)O [erythromycin]

MIC values ([2]; MRSA strain 3666): >100 µg/mL | MIC values ([2]; MRSA strain 3667): >100 µg/mL | MIC values ([2]; MRSA strain 3668): >100 µg/mL | MIC values ([2]; MRSA strain 3669): >100 µg/mL | MIC values ([2]; MRSA strain 3670): >100 µg/mL | MIC values ([2]; MRSA strain 3671): >100 µg/mL | MIC values ([2]; MRSA strain S-1): >100 µg/mL | MIC values ([2]; MRSA strain S-2): >100 µg/mL | MIC values ([2]; MRSA strain S-3): >100 µg/mL | MIC values ([2]; MRSA strain S-4): >100 µg/mL | MIC values ([2]; MRSA strain S-5): >100 µg/mL
Structure (SMILES): CC1(C)S[C@@H]2[C@H](NC(=O)Cc3ccccc3)C(=O)N2[C@H]1C(=O)O [penicillin-G]

Structure (SMILES): CN[C@H](CC(C)C)C(=O)N[C@H]1C(=O)N[C@@H](CC(N)=O)C(=O)N[C@H]2C(=O)N[C@H]3C(=O)N[C@H](C(=O)N[C@H](C(=O)O)c4cc(O)cc(O)c4-c4cc3ccc4O)[C@H](O)c3ccc(c(Cl)c3)Oc3cc2cc(c3O[C@@H]2O[C@H](CO)[C@@H](O)[C@H](O)[C@H]2O[C@H]2C[C@](C)(N)[C@H](O)[C@H](C)O2)Oc2ccc(cc2Cl)[C@H]1O [vancomycin]
MIC ([2]; read-out: MIC values, MRSA strain 3666): 1.56 µg/mL (≈ 1.08 µM) | MIC ([2]; read-out: MIC values, MRSA strain 3667): 3.13 µg/mL (≈ 2.16 µM) | MIC ([2]; read-out: MIC values, MRSA strain 3668): 1.56 µg/mL (≈ 1.08 µM) | MIC ([2]; read-out: MIC values, MRSA strain 3669): 0.78 µg/mL (≈ 0.538 µM) | MIC ([2]; read-out: MIC values, MRSA strain 3670): 0.78 µg/mL (≈ 0.538 µM) | MIC ([2]; read-out: MIC values, MRSA strain 3671): 0.78 µg/mL (≈ 0.538 µM) | MIC ([2]; read-out: MIC values, MRSA strain S-1): 6.25 µg/mL (≈ 4.31 µM) | MIC ([2]; read-out: MIC values, MRSA strain S-2): 3.13 µg/mL (≈ 2.16 µM) | MIC ([2]; read-out: MIC values, MRSA strain S-3): 1.56 µg/mL (≈ 1.08 µM) | MIC ([2]; read-out: MIC values, MRSA strain S-4): 1.56 µg/mL (≈ 1.08 µM) | MIC ([2]; read-out: MIC values, MRSA strain S-5): 1.56 µg/mL (≈ 1.08 µM)
